SMILES strings stand for the structures. Numbers after ± are expanded uncertainties.

This data set can be described thus: activity coefficient (dimensionless); of the first substance listed, at infinite dilution; xn = mol fraction of the nth substance listed. The following applies: 100 kPa, Liquid, Chromatography, x1 = 0.

With `C=CCCCCC` [1-heptene] + CCCC[N+]1(C)CCCC1.N#CN=C=[N-], the activity coefficient reads like this: (313.15 K) 31.5 ± 3.3; (323.15 K) 30.4 ± 3.2; (343.15 K) 29.2 ± 3.1; (363.15 K) 27.8 ± 2.9; (373.15 K) 27.7 ± 2.9.

`c1ccsc1` [thiophene] + CCCC[N+]1(C)CCCC1.N#CN=C=[N-]: the activity coefficient reads like this: (313.15 K) 0.807 ± 0.083; (323.15 K) 0.845 ± 0.087; (343.15 K) 0.929 ± 0.095; (363.15 K) 1.01 ± 0.1; (373.15 K) 1.05 ± 0.11.

As to `C=CCCCCCCCC` [1-decene] + CCCC[N+]1(C)CCCC1.N#CN=C=[N-], the activity coefficient (313.15 K) amounted to 104 ± 11; the activity coefficient (323.15 K) was 98.2 ± 10; the activity coefficient (343.15 K) was 89.4 ± 9.4; the activity coefficient (363.15 K) was 83.7 ± 8.8; the activity coefficient (373.15 K) came out at 78.7 ± 8.3.

With `CCCCCCC` [heptane] + CCCC[N+]1(C)CCCC1.N#CN=C=[N-], the activity coefficient reads like this: (313.15 K) 79.1 ± 8.3; (323.15 K) 74.6 ± 7.9; (343.15 K) 66.5 ± 7; (363.15 K) 60.2 ± 6.3; (373.15 K) 53.6 ± 5.6.

`CCCC(C)=O` [pentan-2-one] + CCCC[N+]1(C)CCCC1.N#CN=C=[N-]: the activity coefficient by setting is: (313.15 K) 1.73 ± 0.18; (323.15 K) 1.79 ± 0.19; (343.15 K) 1.89 ± 0.2; (363.15 K) 1.96 ± 0.21; (373.15 K) 2.02 ± 0.21.

Regarding `Cc1cccc(C)c1` [1,3-dimethylbenzene] + CCCC[N+]1(C)CCCC1.N#CN=C=[N-], the activity coefficient is, setting by setting: (313.15 K) 3.36 ± 0.35; (323.15 K) 3.47 ± 0.36; (343.15 K) 3.58 ± 0.38; (363.15 K) 3.74 ± 0.39; (373.15 K) 3.81 ± 0.4.

Take `CCC(C)(C)OC` [2-methoxy-2-methylbutane] + CCCC[N+]1(C)CCCC1.N#CN=C=[N-]: the activity coefficient (313.15 K) was 9.56 ± 1; the activity coefficient (323.15 K) is 9.39 ± 0.99; the activity coefficient (343.15 K) came to 9.65 ± 1; the activity coefficient (363.15 K) came out at 9.77 ± 1; the activity coefficient (373.15 K) is 9.93 ± 1.

Consider `CO` [methanol] + CCCC[N+]1(C)CCCC1.N#CN=C=[N-], for which the activity coefficient runs as follows: (313.15 K) 0.336 ± 0.042; (323.15 K) 0.333 ± 0.041; (343.15 K) 0.339 ± 0.042; (363.15 K) 0.348 ± 0.043; (373.15 K) 0.353 ± 0.043.

Consider `CCC(=O)CC` [pentan-3-one] + CCCC[N+]1(C)CCCC1.N#CN=C=[N-], for which the activity coefficient by setting is: (313.15 K) 1.7 ± 0.18; (323.15 K) 1.76 ± 0.18; (343.15 K) 1.9 ± 0.2; (363.15 K) 1.99 ± 0.21; (373.15 K) 2.04 ± 0.21.

Turning to `CCC=O` [propanal] + CCCC[N+]1(C)CCCC1.N#CN=C=[N-], the activity coefficient is, setting by setting: (313.15 K) 1.04 ± 0.11; (323.15 K) 1.05 ± 0.11; (343.15 K) 1.1 ± 0.1; (363.15 K) 1.16 ± 0.12; (373.15 K) 1.21 ± 0.12.

For the compound `C#CCCCCCC` [1-octyne] + CCCC[N+]1(C)CCCC1.N#CN=C=[N-], the activity coefficient runs as follows: (313.15 K) 8.87 ± 0.93; (323.15 K) 9.03 ± 0.95; (343.15 K) 9.41 ± 0.99; (363.15 K) 9.79 ± 1; (373.15 K) 9.87 ± 1.

Turning to `C#CCCCCC` [1-heptyne] + CCCC[N+]1(C)CCCC1.N#CN=C=[N-], the activity coefficient (313.15 K) was found to be 5.76 ± 0.61; the activity coefficient (323.15 K) is 5.95 ± 0.63; the activity coefficient (343.15 K) stood at 6.39 ± 0.67; the activity coefficient (363.15 K) is 6.76 ± 0.71; the activity coefficient (373.15 K) was determined as 6.92 ± 0.73.

Take `CCCOCCC` [dipropyl ether] + CCCC[N+]1(C)CCCC1.N#CN=C=[N-]: the activity coefficient (313.15 K) worked out at 17.9 ± 1.9; the activity coefficient (323.15 K) was found to be 17 ± 1.8; the activity coefficient (343.15 K) was determined as 16.8 ± 1.8; the activity coefficient (363.15 K) is 16.6 ± 1.7; the activity coefficient (373.15 K) turned out to be 16.6 ± 1.7.

Turning to `CCOC(C)(C)C` [2-ethoxy-2-methylpropane] + CCCC[N+]1(C)CCCC1.N#CN=C=[N-], the activity coefficient (313.15 K) turned out to be 17.2 ± 1.8; the activity coefficient (323.15 K) amounted to 16.9 ± 1.8; the activity coefficient (343.15 K) was 16.9 ± 1.8; the activity coefficient (363.15 K) was 16.7 ± 1.8; the activity coefficient (373.15 K) came to 16.1 ± 1.7.

On to `CCCC(=O)OC` [methyl butanoate] + CCCC[N+]1(C)CCCC1.N#CN=C=[N-], for which the activity coefficient reads like this: (313.15 K) 2.92 ± 0.31; (323.15 K) 3 ± 0.32; (343.15 K) 3.16 ± 0.33; (363.15 K) 3.25 ± 0.34; (373.15 K) 3.34 ± 0.35.

As to `CCc1ccccc1` [ethylbenzene] + CCCC[N+]1(C)CCCC1.N#CN=C=[N-], the activity coefficient runs as follows: (313.15 K) 3.32 ± 0.35; (323.15 K) 3.43 ± 0.36; (343.15 K) 3.52 ± 0.37; (363.15 K) 3.7 ± 0.4; (373.15 K) 3.77 ± 0.4.

For `c1ccccc1` [benzene] + CCCC[N+]1(C)CCCC1.N#CN=C=[N-], the activity coefficient by setting is: (313.15 K) 1.38 ± 0.14; (323.15 K) 1.4 ± 0.14; (343.15 K) 1.49 ± 0.15; (363.15 K) 1.6 ± 0.2; (373.15 K) 1.62 ± 0.17.

Regarding `C1COCCO1` [1,4-dioxane] + CCCC[N+]1(C)CCCC1.N#CN=C=[N-], the activity coefficient (313.15 K) was found to be 0.909 ± 0.093; the activity coefficient (323.15 K) amounted to 0.962 ± 0.098; the activity coefficient (343.15 K) was found to be 1.05 ± 0.11; the activity coefficient (363.15 K) was 1.13 ± 0.12; the activity coefficient (373.15 K) is 1.17 ± 0.12.

Turning to `C=C(C)c1ccccc1` [(1-methylethenyl)benzene] + CCCC[N+]1(C)CCCC1.N#CN=C=[N-], the activity coefficient by setting is: (313.15 K) 2.2 ± 0.23; (323.15 K) 2.37 ± 0.25; (343.15 K) 2.67 ± 0.28; (363.15 K) 2.89 ± 0.3; (373.15 K) 3.02 ± 0.32.

With `C1=CCCCC1` [cyclohexene] + CCCC[N+]1(C)CCCC1.N#CN=C=[N-], the activity coefficient runs as follows: (313.15 K) 9.06 ± 0.95; (323.15 K) 8.78 ± 0.92; (343.15 K) 8.65 ± 0.91; (363.15 K) 8.48 ± 0.89; (373.15 K) 8.26 ± 0.87.

Turning to `CCO` [ethanol] + CCCC[N+]1(C)CCCC1.N#CN=C=[N-], the activity coefficient runs as follows: (313.15 K) 0.533 ± 0.058; (323.15 K) 0.525 ± 0.057; (343.15 K) 0.52 ± 0.06; (363.15 K) 0.519 ± 0.057; (373.15 K) 0.521 ± 0.057.

In the case of `CC(C)=O` [acetone] + CCCC[N+]1(C)CCCC1.N#CN=C=[N-], the activity coefficient by setting is: (313.15 K) 0.907 ± 0.093; (323.15 K) 0.91 ± 0.09; (343.15 K) 0.978 ± 0.099; (363.15 K) 1.04 ± 0.11; (373.15 K) 1.06 ± 0.11.

On to `COC(C)(C)C` [2-methoxy-2-methylpropane] + CCCC[N+]1(C)CCCC1.N#CN=C=[N-], for which the activity coefficient by setting is: (313.15 K) 6.25 ± 0.66; (323.15 K) 6.32 ± 0.66; (343.15 K) 6.55 ± 0.69; (363.15 K) 6.92 ± 0.73; (373.15 K) 7.15 ± 0.75.

As to `C#CCCCC` [1-hexyne] + CCCC[N+]1(C)CCCC1.N#CN=C=[N-], the activity coefficient stood at 3.81 ± 0.4 (313.15 K); 3.98 ± 0.42 (323.15 K); 4.32 ± 0.45 (343.15 K); 4.61 ± 0.48 (363.15 K); 4.77 ± 0.5 (373.15 K).

Take `C=Cc1ccccc1` [styrene] + CCCC[N+]1(C)CCCC1.N#CN=C=[N-]: the activity coefficient was found to be 1.49 ± 0.15 (313.15 K); 1.54 ± 0.16 (323.15 K); 1.7 ± 0.18 (343.15 K); 1.8 ± 0.19 (363.15 K); 1.9 ± 0.2 (373.15 K).

With `c1ccncc1` [pyridine] + CCCC[N+]1(C)CCCC1.N#CN=C=[N-], the activity coefficient is, setting by setting: (313.15 K) 1.02 ± 0.1; (323.15 K) 1.05 ± 0.11; (343.15 K) 1.07 ± 0.11; (363.15 K) 1.11 ± 0.11; (373.15 K) 1.13 ± 0.12.

For `CCCCCCCCC` [nonane] + CCCC[N+]1(C)CCCC1.N#CN=C=[N-], the activity coefficient runs as follows: (313.15 K) 172 ± 18; (323.15 K) 154 ± 16; (343.15 K) 133 ± 14; (363.15 K) 120 ± 13; (373.15 K) 114 ± 12.

Take `C=CCCCC` [hex-1-ene] + CCCC[N+]1(C)CCCC1.N#CN=C=[N-]: the activity coefficient came out at 21 ± 2.2 (313.15 K); 20.3 ± 2.1 (323.15 K); 19.3 ± 2 (343.15 K); 18.4 ± 1.9 (363.15 K); 18.6 ± 2 (373.15 K).

Consider `Cc1ccccc1C` [1,2-dimethylbenzene] + CCCC[N+]1(C)CCCC1.N#CN=C=[N-], for which the activity coefficient by setting is: (313.15 K) 2.69 ± 0.28; (323.15 K) 2.75 ± 0.29; (343.15 K) 2.91 ± 0.31; (363.15 K) 3.1 ± 0.3; (373.15 K) 3.18 ± 0.33.

For the compound `CC(C)O` [propan-2-ol] + CCCC[N+]1(C)CCCC1.N#CN=C=[N-], the activity coefficient reads like this: (313.15 K) 0.744 ± 0.077; (323.15 K) 0.719 ± 0.075; (343.15 K) 0.714 ± 0.074; (363.15 K) 0.711 ± 0.074; (373.15 K) 0.696 ± 0.073.

Take `CCOC(C)=O` [ethyl acetate] + CCCC[N+]1(C)CCCC1.N#CN=C=[N-]: the activity coefficient is 2.35 ± 0.25 (313.15 K); 2.36 ± 0.25 (323.15 K); 2.48 ± 0.26 (343.15 K); 2.57 ± 0.27 (363.15 K); 2.61 ± 0.27 (373.15 K).

On to `CCCO` [propan-1-ol] + CCCC[N+]1(C)CCCC1.N#CN=C=[N-], for which the activity coefficient runs as follows: (313.15 K) 0.649 ± 0.068; (323.15 K) 0.645 ± 0.068; (343.15 K) 0.648 ± 0.068; (363.15 K) 0.665 ± 0.07; (373.15 K) 0.638 ± 0.067.

Values taken from the NIST ThermoML archive (doi:10.1016/j.fluid.2018.06.013).
